From patent US20260102387A1, “IMMUNOSUPPRESSIVE COMPOUNDS” (UNIVERSITÄT BASEL, priority 2022, published 2026)

How the values were obtained:
coronin 1 promoter = assay: EC50 analysis for coronin 1 promoter driven GFP inhibition by flow cytometry in RBL cells; assay type: cell-based; settings: for EC50: RBL, RBL cells, 48-65 h, flow cytometry
Method in brief: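 RBL cells carrying coronin 1 promoter–GFP, mixed with CMV promoter–RFP cells, exposed to compounds 48–65 h and analyzed by flow cytometry with live/dead staining. EC50 derived from GFP inhibition, with RFP and viability as nonspecific and toxicity counter-reads; cycloheximide and DMSO as controls, relative potency normalized to a reference compound.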

CMV promoter = assay: EC50 analysis for CMV promoter driven RFP inhibition (non-specific activity) by flow cytometry in RBL cells; assay type: cell-based, cytomegalovirus; settings: 48-65 h, read-out: EC50 RFP alteration
Description: RBL cells expressing GFP under coronin 1 promoter and optionally with RBL cells expressing RFP under CMV promoter were mixed in equal numbers and incubated with the compounds at indicated concentrations for 48-65 h and analyzed by flow cytometry for alteration in coronin 1 promoter (GFP fluorescence), CMV promoter (RFP fluorescence) values. In addition, the cells were labelled with live-dead marker for assessing cell viability status by flow cytometry. Cycloheximide (CHX) serves as positive control and DMSO serves as negative controls. Effective Concentration (EC50) values for coronin 1 promoter inhibition via GFP fluorescence analysis, non-specific promoter inhibition via CMV promoter driven-RFP fluorescence analysis and cell viability via live/dead staining as a measure for toxicity in flow cytometry for compounds (10-22 and 50a-65a) are shown in Table 6 and Table 7. Based on the EC50 analysis of the inhibition of coronin 1 promoter driven GFP fluorescence the (4S,7R)-configurated eutomers were identified (Structures FIG. 9A-C). This is exemplified for compounds containing two stereocenters by eutomers 11c and 13a. […] Subsequent EC50 evaluations (Table 7) were performed with compound 13a as standard for relative potency normalized to a value of 1.00 (relative potency calculated as [EC50 GFP inhibition 13a]/[EC50 GFP inhibition compound of interest]).

RBL cells = assay: Cell viability by live-dead staining (cytotoxicity), flow cytometry; assay type: cell-based, Rat; settings: Rattus norvegicus, RBL, cell viability via live/dead staining, 48-65 h, read-out: EC50 Toxicity
Method in brief: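 RBL cells with coronin 1 promoter-GFP, mixed 1:1 with CMV promoter-RFP RBL cells, exposed to compound 48-65 h. Flow cytometry read RFP fluorescence for non-specific promoter inhibition and live-dead staining for cytotoxicity. EC50 values derived; cycloheximide positive control, DMSO negative.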

coronin 1 = assay: Western blotting of coronin 1 protein levels in RBL cells; assay type: cell-based, Rat; settings: 2 μg/ml, RBL cells
Description: buffer with 0.2% SDS containing protease and phosphatase inhibitors (Roche) at 4° C., followed by protein determination (BCA, Pierce) and SDS-PAGE with equal protein amounts transferred onto nitrocellulose and probed using antibodies against the indicated proteins (actin and coronin 1) followed by HRP-labeled secondary antibodies and developed using an enhanced chemi-luminescence imager (Fuji) (FIG. 3C).

[1] = system: imiquimod-induced psoriasis; assay: Imiquimod-induced mouse model for psoriasis; assay type: in vivo, mice (Balb/c); settings: 50 mg/kg body weight, twice daily, topical route, day 4
Description: Wild type mice (Balb/c strain, 8-12 weeks), were age and sex matched. The dorsal skin was shaved with a trimmer on an area of ˜2 cm^2 and subjected to topical application of 5% imiquimod cream (Aldara) starting from day 1 and continued for up to 7 days in the morning. For compound administration, mice were applied topically with the compound, twice a day starting 48 hours before the first Imiquimod application and all along of the experiment up to day 7. In the morning, compound was applied 2 h prior to the imiquimod application (FIG. 12A). Mice were scored every day for the inflammatory lesion and general health status as follows: […]

BRD3 BD1 = target: T1, BRD3 BD1 (Homo sapiens, UniProt Q15059); assay: Bromoscan (Eurofins) binding: BRD3 BD1
T1 construct: T7 phage display (bromodomain fused to phage); purchased Eurofins (bromoscan service); host or cells: E. coli host derived from BL21, T7 phage
Description: (§1) Following the initial data from TPP, to further confirm the interaction of compound with BRD3, an in-vitro assay system named bromoscan (Eurofins) was employed to analyse the affinity of the (4S,7R)-configurated compound 12e against the two bromodomains of BRD3.
T7 phage strains displaying bromodomains were grown in 24-well blocks in an E. coli host derived from the BL21 strain. E. coli were grown to log-phase and infected with T7 phage from a frozen stock (multiplicity of infection=0.4) and incubated with shaking at 32° C. until lysis (90-150 minutes). The lysates were centrifuged (5,000×g) and filtered (0.2 μm) to remove cell debris. Streptavidin-coated magnetic beads were treated with biotinylated small molecule or acetylated peptide ligands for 30 minutes at room temperature to generate affinity resins for bromodomain assays. The liganded beads were blocked with excess biotin and washed with blocking buffer (SeaBlock (Pierce), 1% BSA, 0.05% Tween 20, 1 mM DTT) to remove unbound ligand and to reduce non-specific phage binding. […] Test compounds were prepared as 1000× stocks in 100% DMSO. Kds were determined using an 11-point 3-fold compound dilution series with one DMSO control point. All compounds for Kd measurements are distributed by acoustic transfer (non-contact dispensing) in 100% DMSO. […] The bromodomain concentration in the eluates was measured by qPCR. […]

BRD3 BD2 = target: T2, BRD3 BD2 (Homo sapiens, UniProt Q15059); assay: Bromoscan (Eurofins) binding: BRD3 BD2
T2 construct: T7 phage display (bromodomain fused to phage); purchased Eurofins (bromoscan service); host or cells: E. coli host derived from BL21, T7 phage
Description: as §1
T7 phage strains displaying bromodomains were grown in 24-well blocks in an E. coli host derived from the BL21 strain. E. coli were grown to log-phase and infected with T7 phage from a frozen stock (multiplicity of infection=0.4) and incubated with shaking at 32° C. until lysis (90-150 minutes). The lysates were centrifuged (5,000×g) and filtered (0.2 μm) to remove cell debris. Streptavidin-coated magnetic beads were treated with biotinylated small molecule or acetylated peptide ligands for 30 minutes at room temperature to generate affinity resins for bromodomain assays. The liganded beads were blocked with excess biotin and washed with blocking buffer (SeaBlock (Pierce), 1% BSA, 0.05% Tween 20, 1 mM DTT) to remove unbound ligand and to reduce non-specific phage binding. […] Test compounds were prepared as 1000× stocks in 100% DMSO. Kds were determined using an 11-point 3-fold compound dilution series with one DMSO control point. All compounds for Kd measurements are distributed by acoustic transfer (non-contact dispensing) in 100% DMSO. The compounds were then diluted directly into the assays such that the final concentration of DMSO was 0.09%. All reactions performed in polypropylene 384-well plates. Each was a final volume of 0.02 ml. The assay plates were incubated at room temperature with shaking for 1 hour and the affinity beads were washed with wash buffer (1×PBS, 0.05% Tween 20). The beads were then resuspended in elution buffer (1×PBS, 0.05% Tween 20, 2 μM non-biotinylated affinity ligand) and incubated at room temperature with shaking for 30 minutes. The bromodomain concentration in the eluates was measured by qPCR. The bromoscan analysis was done at Eurofins (FIG. 15).

[2] = system: human peripheral blood mononuclear cells; assay: Mixed Lymphocyte Reaction, tritiated-thymidine uptake; assay type: cell-based; settings: human PBMCs
Description: For assessment of the suppression of alloresponses by coronin 1 modulators using the MLR methodology, heparinized or EDTA treated blood or buffy coat from two healthy volunteers were enriched for […] using the standard Histopaque 1.077 gradient centrifugation methodology as detailed above. Post enrichment, one of the donors PBMCs was considered as “responders” and the other as “stimulators”. The “stimulators” were treated with mitomycin to prevent proliferation while the “responders” PBMCs were left untreated. The stimulator and responder PBMCs were washed extensively with plain RPMI and subsequently counted and seeded in 96 well plate at a density of 0.1 million cells/well each (responders plus stimulators=0.2 million cells/well) in a volume of 200 μl RPMI-1640 (Sigma) containing 1× penicillin and streptomycin (Gibco), 2 mM L-glutamine (Gibco) and 10% heat inactivated FCS (PAA) along with the vehicle (DMSO) or coronin 1 expression inhibitor at indicated concentrations. Cells were incubated in a 37° C. humidified incubator with a 5% CO2 for five days with the expression inhibitor and at the end of which 0.5 μCi of tritiated thymidine was added to all wells and further incubated for 20 h followed by harvesting on a GF/C filter and measuring the DNA-incorporated counts using a Packard instrument as a measure of immune responses (FIG. 10).

BRD3 = target: T3, BRD3 (Rattus norvegicus, UniProt D3ZWU1); assay: Thermal Proteome Profiling in RBL cells: BRD3; assay type: binding; settings: 6 μM
T3 construct: endogenous in cells; host or cells: RBL (rat basophil leukemia) cells
Description: To identify the target of the coronin 1 modulatory compounds, Thermal Proteome Profiling (TPP), a methodology based on the property of proteins to alter their thermal stability upon interactions with small molecules (Savitski, M. M., et al., Science, 2014. 346(6205): p. 1255784), was employed. To that end, Rat Basophil Leukemia (RBL) cells were incubated with the compound 12e followed by gradient thermal denaturation (37/41/44/47/50/53/56/59/63/67 degree C.) and mass spectrometric assessment of proteins that get either stabilized or destabilized upon interacting with the compound performed. […]
Thermal proteome profiling was performed as described (Savitski, M. M., et al., Science, 2014. 346(6205): p. 1255784). In brief, RBL cells (50 millions/condition) were incubated with the vehicle DMSO or the compound 12e at 6, 3 or 0 μM concentration for a period of 1 h at the end of which, the cells were washed in ice cold PBS, counted and subjected to thermal denaturation (37/41/44/47/50/53/56/59/63/67° C.) for 3 minutes, lysed by freeze thawing in liquid nitrogen and supernatant containing the soluble proteins separated by centrifugation at 100,000 g for 30 minutes. Equal volumes of the supernatant were taken, subjected to tryptic digestion and labelling with 10 plex-TMT (Thermo Fisher) and the labelled peptides analyzed and quantitated using mass spectrometry (FIG. 13).

T2 sequence (Q15059 306-415 limits assumed): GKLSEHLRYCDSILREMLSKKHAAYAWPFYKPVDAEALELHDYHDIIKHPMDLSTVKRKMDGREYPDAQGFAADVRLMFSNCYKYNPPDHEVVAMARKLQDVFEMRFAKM
T1 sequence (Q15059 34-140 limits assumed): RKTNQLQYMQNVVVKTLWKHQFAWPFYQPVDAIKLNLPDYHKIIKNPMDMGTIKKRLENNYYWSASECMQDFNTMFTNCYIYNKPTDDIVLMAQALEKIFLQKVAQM
T3 sequence (D3ZWU1 1-725): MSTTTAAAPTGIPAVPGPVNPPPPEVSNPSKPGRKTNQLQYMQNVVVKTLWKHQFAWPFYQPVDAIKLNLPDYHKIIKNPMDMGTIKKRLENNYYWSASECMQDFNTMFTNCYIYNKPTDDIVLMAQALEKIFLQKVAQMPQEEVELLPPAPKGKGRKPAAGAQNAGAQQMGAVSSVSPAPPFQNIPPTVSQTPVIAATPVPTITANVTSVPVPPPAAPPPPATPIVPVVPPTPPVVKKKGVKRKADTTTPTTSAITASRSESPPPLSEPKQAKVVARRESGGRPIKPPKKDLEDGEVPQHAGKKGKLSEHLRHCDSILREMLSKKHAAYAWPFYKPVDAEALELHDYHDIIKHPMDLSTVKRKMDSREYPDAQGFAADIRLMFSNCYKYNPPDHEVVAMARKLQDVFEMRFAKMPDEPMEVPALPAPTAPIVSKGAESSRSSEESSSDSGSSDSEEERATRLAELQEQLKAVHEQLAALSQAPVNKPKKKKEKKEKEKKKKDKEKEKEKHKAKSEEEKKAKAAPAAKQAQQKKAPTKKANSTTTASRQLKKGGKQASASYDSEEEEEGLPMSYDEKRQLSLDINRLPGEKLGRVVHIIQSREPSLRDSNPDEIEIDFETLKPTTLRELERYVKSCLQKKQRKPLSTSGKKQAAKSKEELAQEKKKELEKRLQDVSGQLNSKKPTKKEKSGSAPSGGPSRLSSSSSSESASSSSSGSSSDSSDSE

increase of thermal denaturation of BRD3 (BRD3) | Structure (SMILES) | EC50 (coronin 1 promoter) | rel. potency GFP inhibition (coronin 1 promoter; [EC50 GFP inhibition 13a]/[EC50 GFP inhibition compound of interest], 13a = 1.00) | EC50 (CMV promoter) | EC50 (RBL cells) | coronin 1 depletion by Western blot (coronin 1) | disease score (erythema, surface area affected, psoriatic plaque formation) [1] | Kd (BRD3 BD1) | Kd (BRD3 BD2) | relative affinity for BRD3 bromodomains BD1 and BD2 (BRD3 BD2) | Mixed Lymphocyte Responses (tritiated-thymidine uptake) [2]
– | COc1ccccc1[C@H]1CC(=O)C2=C(C1)NC(C)=C(C(=O)OC1CCOCC1)[C@H]2c1cccc(O)c1 [13a, tetrahydro-2H-pyran-4-yl (4S, 7R)-4-(3-hydroxyphenyl)-7-(2-methoxyphenyl)-2-methyl-5-oxo-1,4,5,6,7,8-hexahydro-3-quinolinecarboxylate] | 65 nM | 1.00 | > 2500 nM | > 2500 nM | showed coronin 1 depletion | suppresses autoimmune-inflammatory disease severity | 150 nM | 4 nM | higher affinity for the BD2 domain | –
over four degrees Celsius | COc1ccccc1[C@H]1CC(=O)C2=C(C1)NC(C)=C(C(=O)OC[C@@H]1CCCO1)[C@H]2c1cccc(O)c1 [12e, tetrahydro-2-furanylmethyl (4S, 7R)-4-(3-hydroxyphenyl)-7-(2-methoxyphenyl)-2-methyl-5-oxo-1,4,5,6,7,8-hexahydro-3-quinolinecarboxylate] | 70 nM | – | – | > 20000 nM | showed coronin 1 depletion | – | ~200 nM | ~10 nM | higher affinity for the BD2 domain | inhibition
